Key:
[1] = biological target: T1, BRD4-1 (Homo sapiens, UniProt O60885); assay: Bromodomain protein inhibition IC50, binding domain 1 of BRD4 (Reaction Biology Corp.); settings: 10-point curve
T1 construct: purchased Reaction Biology Corp., Malvern, Pa; (contract assay service)
Excerpt: (§1) The inhibitory activity of a compound of the invention against PI3K and/or BRD4 and/or SYK and/or CDK4/6 can be readily determined using methods known to the skilled artisan, or by commercial vendors offering such services. […] In vivo, PI3K inhibition can be determined from target tissue biopsies by standard tissue processing to disrupt cells and then performing Western Blot analysis to determine the presence or absence of pAKT (substrate of PI3K) relative to a control sample. The activity of a compound of the invention as an inhibitor of a bromodomain-containing protein, such as a BET protein, such as BRD2, BRD3, BRD4, and/or BRDT, or an isoform or mutant thereof, may be determined in vitro, in vivo, or in a cell line. In vitro assays include assays that determine inhibition of bromodomain-containing proteins. Alternatively, inhibitor binding may be determined by running a competition experiment where a provided compound is incubated with a bromodomain-containing protein, such as a BET protein bound to known ligands, labeled or unlabeled. For example, bromodomain inhibition can be determined in vitro using Alpha Screen Technology (http://www.reactionbiologv.com/webapps/site/NewsPDFs/Bromodomain%20Assay %20Platform %20for %20Drug %20Screening %20and %20Discovery.pdf). In vivo bromodomain inhibition can be determined indirectly by evaluating the amount of protein present of proteins whose genes' transcription is influenced or controlled by the bromodomain protein, for example, the MYCN protein transcription is controlled by BRD4 (J. E. Delmore et al., Cell 2011, 146, 904-917; A. Puissant, Cancer Discov. 2013, 3, 308-323). Bromodomain inhibition may also be predicted by in silico modeling as described below in the Examples. Additionally, the company Promega offers a SYK luminescent assay to determine a compound's ability to inhibit the SYK protein (https://www.promega.com/-/media/files/resources/protocols/kinase-enzyme-appnotes/syk-kinase-assay-protocol.pdf?la=en).
(§2) Compounds of the invention were characterized for their ability to inhibit target proteins using third party vendors offering such services. PI3K alpha, gamma, and delta inhibition activity was determined by Thermo Fisher Scientific-Biosciences Life Sciences Solutions, Madison, Wis. The bromodomain protein inhibition (binding domain 1 and 2 of BRD4) as well as SYK inhibition was determined at Reaction Biology Corp., Malvern, Pa. […] The IC50 data (shown below in Table 5) was calculated from a 10-point curve and is expressed in nanomolar concentration (nM) rounded off to the nearest whole number. […]

[2] = biological target: T2, BRD4-2 (Homo sapiens, UniProt O60885); assay: Bromodomain protein inhibition IC50, binding domain 2 of BRD4 (Reaction Biology Corp.); settings: 10-point curve
T2 construct: purchased Reaction Biology Corp., Malvern, Pa; (contract assay service)
Excerpt: as §1, §2

[3] = biological target: T3, PI3K γ (Homo sapiens, UniProt P48736); assay: PI3K gamma inhibition IC50 (Thermo Fisher); format: biochemical; settings: 10-point curve
T3 construct: purchased Thermo Fisher Scientific-Biosciences Life Sciences Solutions, Madison, Wis; (contract assay service)
Excerpt: as §1, §2

[4] = tested on: Bone marrow derived macrophages (BMDMs), M2 gene expression; assay: M2 marker mRNA in IL4 stimulated bone marrow derived macrophages (RT PCR); format: cell-based, murine; settings: for Arg mRNA expression relative to control / Fizz1 mRNA expression relative to control / Mmr mRNA expression relative to control / Ym1 mRNA expression relative to control / Mgl mRNA expression relative to control: IL4 stimulated BMDMs, 24 hours, normalized to GAPDH, control = 1
Experimental: (§3) Bone marrow derived macrophages (MOs) (BMDMs) were exposed to IL4 or LPS for 24 hours to stimulate the M2 or M1 macrophage transition in presence of Compound 1 and the known SYK inhibitor Bay-61-3606 at 1 μM conc. M2 markers Mmr, Ym1, Fizz1 and Mgl mRNA and M1 markers I11, 116 and Tnfa mRNA was quantitated by RT PCR. Values are mean±SEM (n=3-4). Expression of gene of interest is normalized to GAPDH. […] The data provide direct evidence that Compound 1 can block the immunosuppressive macrophage M2 gene expression and activate the M1 gene expression and therefore activate antitumor innate immune cell differentiation in vitro.
(§4) Relative mRNA expression of IL4 or LPS polarized genes in murine bone marrow derived macrophages (BMDMs) treated with various concentrations of inhibitors in vitro. Conclusion: Compound 3 suppressed in vitro macrophage specific immunosuppressive M2 gene expression markers and augmented macrophage stimulatory immune response M1 genes respectively.

[5] = biological target: T4, PI3K α (Homo sapiens, UniProt P42336); assay: PI3K alpha inhibition IC50 (Thermo Fisher); format: biochemical; settings: 10-point curve
T4 construct: purchased Thermo Fisher Scientific-Biosciences Life Sciences Solutions, Madison, Wis; (contract assay service)
Excerpt: as §1, §2

[6] = biological target: T5, SYK (Homo sapiens, UniProt P43405); assay: SYK inhibition IC50 (Reaction Biology Corp.); format: biochemical; settings: 10-point curve; read-out: SYK IC50
T5 construct: purchased Reaction Biology Corp., Malvern, Pa; (contract assay service)
Excerpt: as §1
Compounds of the invention were characterized for their ability to inhibit target proteins using third party vendors offering such services. PI3K alpha, gamma, and delta inhibition activity was determined by Thermo Fisher Scientific-Biosciences Life Sciences Solutions, Madison, Wis. The bromodomain protein inhibition (binding domain 1 and 2 of BRD4) as well as SYK inhibition was determined at Reaction Biology Corp., Malvern, Pa. Additional information on each of the assays performed and services provided is available at each company's website on the internet (https://www.thermofisher.com/us/en/home/life-science.html and http://www.reactionbiology.com/webapps/site, respectively). The IC50 data (shown below in Table 5) was calculated from a 10-point curve and is expressed in nanomolar concentration (nM) rounded off to the nearest whole number. Where multiple values were obtained the range from lowest to highest values is presented. NI=no inhibition detected up to 50 uM or IC50 not reached at 50 uM.

[7] = tested on: Bone marrow derived macrophages (BMDMs), M1 gene expression; assay: M1 marker mRNA in LPS stimulated bone marrow derived macrophages (RT PCR); format: cell-based, murine; settings: for Il1 mRNA expression relative to control / Il6 mRNA expression relative to control / Tnfa mRNA expression relative to control: LPS stimulated BMDMs, 24 hours, normalized to GAPDH, control = 1
Excerpt: as §3, with “Bone marrow derived macrophages (MOs) (BMDMs) were exposed to IL4 or LPS for 24 hours to stimulate the M2 or M1 macrophage transition in presence of Compound 1 and the known SYK inhibitor Bay-61-3606 at 1 μM conc.” left out
as §4

[8] = tested on: Bone marrow derived macrophages (BMDMs), M2 gene expression; assay: M2 marker mRNA in IL4 stimulated bone marrow derived macrophages (RT PCR); format: cell-based, murine; settings: 24 hours, normalized to GAPDH, control = 1

T4 sequence (P42336 whole entry): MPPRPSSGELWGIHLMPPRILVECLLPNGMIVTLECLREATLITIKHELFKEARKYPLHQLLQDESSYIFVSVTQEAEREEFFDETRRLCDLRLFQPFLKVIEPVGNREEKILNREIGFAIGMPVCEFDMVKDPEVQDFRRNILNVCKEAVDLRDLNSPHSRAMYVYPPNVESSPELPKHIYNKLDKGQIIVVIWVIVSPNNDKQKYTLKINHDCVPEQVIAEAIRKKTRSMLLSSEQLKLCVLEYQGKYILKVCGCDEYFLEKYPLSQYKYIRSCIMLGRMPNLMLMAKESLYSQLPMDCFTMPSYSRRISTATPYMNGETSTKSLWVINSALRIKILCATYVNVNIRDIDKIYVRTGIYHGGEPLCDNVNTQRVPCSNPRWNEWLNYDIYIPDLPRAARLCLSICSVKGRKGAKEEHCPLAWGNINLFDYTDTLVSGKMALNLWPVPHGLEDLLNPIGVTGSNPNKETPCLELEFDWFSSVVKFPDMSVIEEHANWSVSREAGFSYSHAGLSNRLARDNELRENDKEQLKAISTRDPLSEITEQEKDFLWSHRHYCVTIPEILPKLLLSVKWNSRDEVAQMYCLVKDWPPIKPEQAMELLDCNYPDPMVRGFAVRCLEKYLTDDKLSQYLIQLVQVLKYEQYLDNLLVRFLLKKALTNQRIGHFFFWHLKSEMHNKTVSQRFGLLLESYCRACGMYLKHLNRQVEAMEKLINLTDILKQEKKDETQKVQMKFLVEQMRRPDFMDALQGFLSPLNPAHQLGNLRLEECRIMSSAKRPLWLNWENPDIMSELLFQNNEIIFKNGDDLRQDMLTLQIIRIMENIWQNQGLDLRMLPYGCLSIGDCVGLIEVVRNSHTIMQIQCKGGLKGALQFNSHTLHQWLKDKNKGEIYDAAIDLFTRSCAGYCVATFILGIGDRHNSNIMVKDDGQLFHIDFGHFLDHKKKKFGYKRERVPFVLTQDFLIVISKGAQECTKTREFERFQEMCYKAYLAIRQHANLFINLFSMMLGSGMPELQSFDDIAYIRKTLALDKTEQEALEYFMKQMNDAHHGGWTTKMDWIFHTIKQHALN
T4 sequence (P27986 whole entry partner): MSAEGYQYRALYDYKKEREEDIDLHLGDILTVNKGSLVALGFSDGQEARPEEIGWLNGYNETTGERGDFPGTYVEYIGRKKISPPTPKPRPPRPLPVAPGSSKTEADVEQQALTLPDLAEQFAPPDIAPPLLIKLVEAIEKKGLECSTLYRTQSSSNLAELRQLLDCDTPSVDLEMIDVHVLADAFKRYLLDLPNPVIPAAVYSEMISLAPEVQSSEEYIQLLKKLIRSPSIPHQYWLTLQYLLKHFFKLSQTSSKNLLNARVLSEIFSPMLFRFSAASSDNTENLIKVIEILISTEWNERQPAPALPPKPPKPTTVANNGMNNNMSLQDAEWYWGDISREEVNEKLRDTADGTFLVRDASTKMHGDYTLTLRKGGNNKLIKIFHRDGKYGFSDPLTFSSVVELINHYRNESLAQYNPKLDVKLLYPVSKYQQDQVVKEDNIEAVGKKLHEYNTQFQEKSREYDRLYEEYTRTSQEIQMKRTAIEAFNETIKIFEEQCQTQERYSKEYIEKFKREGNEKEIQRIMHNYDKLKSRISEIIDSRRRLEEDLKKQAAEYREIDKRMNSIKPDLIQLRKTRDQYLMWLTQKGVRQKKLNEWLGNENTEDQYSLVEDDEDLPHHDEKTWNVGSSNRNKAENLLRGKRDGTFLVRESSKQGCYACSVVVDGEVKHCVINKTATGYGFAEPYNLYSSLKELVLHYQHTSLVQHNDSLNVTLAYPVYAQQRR
T3 sequence (P48736 whole entry): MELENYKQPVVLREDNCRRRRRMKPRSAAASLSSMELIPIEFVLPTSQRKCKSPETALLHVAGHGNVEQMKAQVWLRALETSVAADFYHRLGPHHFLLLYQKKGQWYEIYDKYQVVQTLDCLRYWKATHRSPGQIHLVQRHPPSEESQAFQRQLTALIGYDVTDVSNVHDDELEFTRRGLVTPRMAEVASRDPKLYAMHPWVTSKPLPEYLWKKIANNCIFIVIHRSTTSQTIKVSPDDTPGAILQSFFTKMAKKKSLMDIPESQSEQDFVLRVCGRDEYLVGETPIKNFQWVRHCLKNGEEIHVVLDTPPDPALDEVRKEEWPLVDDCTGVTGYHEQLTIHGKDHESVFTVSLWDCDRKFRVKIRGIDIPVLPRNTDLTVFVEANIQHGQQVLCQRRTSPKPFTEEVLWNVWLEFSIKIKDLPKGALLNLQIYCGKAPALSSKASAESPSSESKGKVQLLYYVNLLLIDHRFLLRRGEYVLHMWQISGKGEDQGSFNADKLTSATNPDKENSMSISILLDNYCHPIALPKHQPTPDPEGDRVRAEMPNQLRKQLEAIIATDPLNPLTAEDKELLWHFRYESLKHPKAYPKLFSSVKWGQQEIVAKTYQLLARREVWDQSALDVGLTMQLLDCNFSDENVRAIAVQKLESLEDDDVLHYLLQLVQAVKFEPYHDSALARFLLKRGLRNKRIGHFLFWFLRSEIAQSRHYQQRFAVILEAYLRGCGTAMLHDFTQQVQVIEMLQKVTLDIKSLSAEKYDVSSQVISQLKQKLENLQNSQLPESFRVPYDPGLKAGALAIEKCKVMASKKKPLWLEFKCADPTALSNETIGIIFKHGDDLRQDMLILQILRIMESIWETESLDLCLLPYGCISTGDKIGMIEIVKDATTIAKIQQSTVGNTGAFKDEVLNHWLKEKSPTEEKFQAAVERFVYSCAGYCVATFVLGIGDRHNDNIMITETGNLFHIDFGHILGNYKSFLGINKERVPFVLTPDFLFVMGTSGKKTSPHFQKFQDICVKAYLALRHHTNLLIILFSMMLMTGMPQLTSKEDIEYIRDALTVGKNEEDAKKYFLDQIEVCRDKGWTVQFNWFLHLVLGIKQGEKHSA

For `Cc1nn(-c2ccnc(Nc3ccc(-c4csc5c(=O)cc(N6CCOCC6)oc45)cc3)n2)cc1CN1CC(O)C1` [Compound 1, 3-[p-(4-{4-[(3-Hydroxy-1-azetidinyl)methyl]-3-methyl-1H-pyrazol-1-yl}-2-pyrimidinylamino)phenyl]-5-morpholino-4-oxa-1-thia-7-indenone], the IC50 [1] was greater than 50 µM, the IC50 [2] was greater than 50 µM and the IC50 [3] was 5 to 50 µM. For the same compound, the “Arg mRNA expression relative to control” value ([4]; 200 nM) was 0.5, the “Fizz1 mRNA expression relative to control” value ([4]; 200 nM) was 0.44 and the “Mmr mRNA expression relative to control” value ([4]; 200 nM) was 0.41. The “Ym1 mRNA expression relative to control” value ([4]; 200 nM) was 0.37, the “Arg mRNA expression relative to control” value ([4]; 500 nM) was 0.45 and the “Fizz1 mRNA expression relative to control” value ([4]; 500 nM) was 0.31. The “Mgl mRNA expression relative to control” value ([4]; 500 nM) was 0.41, the “Mmr mRNA expression relative to control” value ([4]; 500 nM) was 0.18 and the “Ym1 mRNA expression relative to control” value ([4]; 500 nM) was 0.21. For the same compound, the “Arg mRNA expression relative to control” value ([4]; 1 μM) was 0.39, the “Fizz1 mRNA expression relative to control” value ([4]; 1 μM) was 0.11 and the “Mgl mRNA expression relative to control” value ([4]; 1 μM) was 0.30. The “Mmr mRNA expression relative to control” value ([4]; 1 μM) was 0.19, the “Ym1 mRNA expression relative to control” value ([4]; 1 μM) was 0.10 and the “Arg mRNA expression relative to control” value ([4]; 2 μM) was 0.14. The “Mgl mRNA expression relative to control” value ([4]; 2 μM) was 0.40, the “Mmr mRNA expression relative to control” value ([4]; 2 μM) was 0.14 and the “Ym1 mRNA expression relative to control” value ([4]; 2 μM) was 0.11. For the same compound, the “Arg mRNA expression relative to control” value ([4]; 5 μM) was 0.22, the “Fizz1 mRNA expression relative to control” value ([4]; 5 μM) was 0.06 and the “Mgl mRNA expression relative to control” value ([4]; 5 μM) was 0.24. The “Mmr mRNA expression relative to control” value ([4]; 5 μM) was 0.18, the “Ym1 mRNA expression relative to control” value ([4]; 5 μM) was 0.04 and the “immunosuppressive macrophage M2 gene expression” value ([4]; BMDMs, IL4 24 hours, 1 μM) was “blocks immunosuppressive M2 gene expression”. The IC50 [5] was 0.1 to 1 µM, the IC50 [6] was less than 0.1 µM and the “Il1 mRNA expression relative to control” value ([7]; 200 nM) was 1.1. For the same compound, the “Il6 mRNA expression relative to control” value ([7]; 200 nM) was 1.7, the “Tnfa mRNA expression relative to control” value ([7]; 200 nM) was 0.88 and the “Il1 mRNA expression relative to control” value ([7]; 500 nM) was 1.1. For the same compound, the “Il6 mRNA expression relative to control” value ([7]; 500 nM) was 1.29, the “Tnfa mRNA expression relative to control” value ([7]; 500 nM) was 1.23 and the “Il1 mRNA expression relative to control” value ([7]; 1 μM) was 1.2. The “Il6 mRNA expression relative to control” value ([7]; 1 μM) was 3.15, the “Tnfa mRNA expression relative to control” value ([7]; 1 μM) was 1.70 and the “Il1 mRNA expression relative to control” value ([7]; 2 μM) was 1.25. For the same compound, the “Il6 mRNA expression relative to control” value ([7]; 2 μM) was 1.59, the “Tnfa mRNA expression relative to control” value ([7]; 2 μM) was 1.99 and the “Il1 mRNA expression relative to control” value ([7]; 5 μM) was 0.69. The “Il6 mRNA expression relative to control” value ([7]; 5 μM) was 0.97, the “Tnfa mRNA expression relative to control” value ([7]; 5 μM) was 0.90 and the “M1 inflammatory gene expression” value ([7]; BMDMs, LPS 24 hours, 1 μM) was “augments M1 inflammatory gene expression”. For the same compound, the “Mgl mRNA expression relative to control” value ([8]; 200 nM) was 0.31 and the “Fizz1 mRNA expression relative to control” value ([8]; 2 μM) was 0.22.

Source: patent US11472814B2, “Thienopyranones and furanopyranones as checkpoint inhibitors and modulators of anti-tumor immunity” (SignalRx Pharmaceuticals, Inc., priority 2017, dated 2022)
